Test results: patent US20250092002A1, “FLUORINATED CATIONIC LIPIDS FOR USE IN LIPID NANOPARTICLES” (Acuitas Therapeutics, Inc., priority 2021, published 2025)

Assays:
[1] = Determination of pKa of formulated lipids (TNS fluorescence assay in lipid nanoparticles); format: physicochemical; conditions: cationic lipid formulated in lipid nanoparticles (cationic lipid/DSPC/cholesterol/PEG-lipid 47.5/10/40.7/1.8 mol %)
Experimental: As described elsewhere, the pKa of formulated cationic lipids is correlated with the effectiveness of LNPs for delivery of nucleic acids (see Jayaraman et al, Angewandte Chemie, International Edition (2012), 51(34), 8529-8533; Semple et al, Nature Biotechnology 28, 172-176 (2010)). The preferred range of pKa is ˜5 to ˜7. The pKa of each cationic lipid was determined in lipid nanoparticles using an assay based on fluorescence of 2-(p-toluidino)-6-napthalene sulfonic acid (TNS). Lipid nanoparticles comprising cationic lipid/DSPC/cholesterol/PEG-lipid (47.5/10/40.7/1.8 mol %) in PBS at a concentration of 0.4 mM total lipid were prepared using the in-line process as described in Example 1. TNS was prepared as a 100 μM stock solution in distilled water. Vesicles were diluted to 24 μM lipid in 2 mL of buffered solutions containing, 10 mM HEPES, 10 mM MES, 10 mM ammonium acetate, 130 mM NaCl, where the pH ranged from 2.5 to 11. An aliquot of the TNS solution was added to give a final concentration of 1 μM and following vortex mixing fluorescence intensity was measured at room temperature in a SLM Aminco Series 2 Luminescence Spectrophotometer using excitation and emission wavelengths of 321 nm and 445 nm. A sigmoidal best fit analysis was applied to the fluorescence data and the pKa was measured as the pH giving rise to half-maximal fluorescence intensity.

[2] = test system: luciferase expression in the liver; assay: In vivo luciferase mRNA expression rodent model (liver luciferase after tail vein injection of mRNA-LNP); parameters: species or system mice; conditions: tail vein injection, liver 4 hours after administration; for Liver Luc (ng luc/g liver), determined at 0.3 mg/kg: 0.3 mg/kg (footnote *)
Experimental: Lipid nanoparticles were prepared and tested according to the general procedures described in PCT Pub. Nos. WO 2015/199952 and WO 2017/004143, the full disclosures of which are incorporated herein by reference. Briefly, cationic lipid, DSPC, cholesterol and PEG-lipid were solubilized in ethanol at a molar ratio of about 50:10:38.5:1.5 or about 47.5:10:40.7:1.8. Lipid nanoparticles (LNP) were prepared at a total lipid to mRNA weight ratio of approximately 10:1 to 40:1. The mRNA is diluted to 0.2 mg/mL in 10 to 50 mM citrate or acetate buffer, pH 4. Syringe pumps were used to mix the ethanolic lipid solution with the mRNA aqueous solution at a ratio of about 1:5 to 1:3 (vol/vol) with total flow rates above 15 mL/min. The ethanol was then removed and the external buffer replaced with PBS by dialysis. Finally, the lipid nanoparticles were filtered through a 0.2 µm pore sterile filter. Lipid nanoparticle particle size was approximately 55-95 nm diameter, and in some instances approximately 70-90 nm diameter as determined by quasi-elastic light scattering using a Malvern Zetasizer Nano ZS (Malvern, UK).
Studies were performed in 6-8 week old female C57BL/6 mice (Charles River) or 8-10 week old CD-1 (Harlan) mice (Charles River) according to guidelines established by an institutional animal care committee (ACC) and the Canadian Council on Animal Care (CCAC). Varying doses of mRNA-lipid nanoparticle were systemically administered by tail vein injection and animals euthanized at a specific time point (e.g., 4 hours) post-administration. Liver and spleen were collected in pre-weighed tubes, weights determined, immediately snap frozen in liquid nitrogen and stored at −80° C. until processing for analysis.
For liver, approximately 50 mg was dissected for analyses in a 2 mL FastPrep tubes (MP Biomedicals, Solon OH). ¼″ ceramic sphere (MP Biomedicals) is added to each tube and 500 μL of Glo Lysis Buffer—GLB (Promega, Madison WI) equilibrated to room temperature is added to liver tissue. Liver tissues were homogenized with the FastPrep24 instrument (MP Biomedicals) at 2×6.0 m/s for 15 seconds. Homogenate was incubated at room temperature for 5 minutes prior to a 1:4 dilution in GLB and assessed using SteadyGlo Luciferase assay system (Promega). Specifically, 50 μL of diluted tissue homogenate was reacted with 50 μL of SteadyGlo substrate, shaken for 10 seconds followed by 5 minute incubation and then quantitated using a CentroXS^3 LB 960 luminometer (Berthold Technologies, Germany). The amount of protein assayed was determined by using the BCA protein assay kit (Pierce, Rockford IL). Relative luminescence units (RLU) were then normalized to total μg protein assayed. To convert RLU to ng luciferase a standard curve was generated with QuantiLum Recombinant Luciferase (Promega).
The FLuc mRNA (L-6107 or L-7202) from Trilink Biotechnologies will express a luciferase protein, originally isolated from the firefly, Photimus pyralis. FLuc is commonly used in mammalian cell culture to measure both gene expression and cell viability. It emits bioluminescence in the presence of the substrate, luciferin. This capped and poly-adenylated mRNA was fully substituted with respect to uridine and/or cytidine nucleosides.
Representative compounds of the disclosure shown in Table 2 were formulated using the following molar ratio: 50% cationic lipid/10% distearoylphosphatidylcholine (DSPC)/38.5% Cholesterol/1.5% PEG lipid 2-[2-(ω-methoxy(polyethyleneglycol2000)ethoxy]-N,N-ditetradecylacetamide) or 47.5% cationic lipid/10% DSPC/40.7% Cholesterol/1.8% PEG lipid. Relative activity was determined by measuring luciferase expression in the liver 4 hours following administration via tail vein injection as described in Example 1. The activity was compared at a dose of 1.0 or 0.5 or 0.3 mg mRNA/kg and expressed as ng luciferase/g liver measured 4 hours after administration, as described in Example 1. Compound numbers in Table 2 refer to the compound numbers of Table 1. […]

Row | Compound | pKa [1] | Liver Luc (ng luc/g liver), determined at 0.3 mg/kg [2] [ng luc/g liver] | Liver Luc (ng luc/g liver), determined at 1.0 mg/kg [2] [ng luc/g liver]
1 | CCCCC(CC)COC(=O)CCCCCCCCC(CCCCCCCCC(=O)OCC(CC)CCC)N(CCCCN(C)C)C(=O)C(F)(F)C(F)(F)C(F)(F)C(F)(F)C(F)(F)C(F)(F)C(F)(F)F (stereo not drawn) [I-5 analogue, reference compound] | 6.86 | 666 ± 589 | 1338 ± 798
2 | CCCCCCCC(=O)N(C(=O)CCCCN(C)C)C(CCCCCC(=O)OCC(CCCC)CCCCC)CCCCCC(=O)OCC(CCCC)CCCCCC (stereo not drawn) [I-11 analogue, reference compound] | 7.04 | 1626 ± 472 | 8102 ± 4319
